Results taken from US20100093824A1 (priority 2006, published 2010).
Where two headings read alike, the source gives them in different places. Non-standard residues stand in square brackets, D forms with d. Residues, ends and D or L forms follow the SMILES beside them. Nle = CCCC[C@H](N)C(=O)O

Key:
[1] = tested on: L protein, the Respiratory Syncytial virus polymerase; assay type: cell-based, RSV, strain A2; details: Hep-2 cells, 17AAG 5 μM
poliovirus [2] = tested on: poliovirus; parameters: species or system cPVR transgenic mice; details: mouse, in vivo
[3] = mouse, in vivo, ip
poliovirus [4] = test: microbe, parasite or virus in culture; assay type: cell-based, Poliovirus Mahoney type 1 strain; details: Enterovirus C, Fibroblast, read-out: inhibition of poliovirus replication
poliovirus [5] = assay type: cell-based
poliovirus [6] = test: microbe, parasite or virus in culture; assay type: cell-based, Poliovirus Mahoney type 1 strain; details: Enterovirus C, HeLa S3, read-out: inhibition of virus production in vRNA transfected cells
capsid precursor P1 = assay type: cell-based, poliovirus
poliovirus [7] = test: microbe, parasite or virus in culture; assay type: cell-based, Poliovirus Mahoney type 1 strain; details: Enterovirus C, HeLa S3, 7 h, read-out: IC50 of inhibition of poliovirus replication

Molecule: C=CCNC1=C2C[C@@H](C)CC(OC)[C@H](O)[C@@H](C)/C=C(\C)C(OC(N)=O)C(OC)/C=C\C=C(/C)C(=O)NC(=CC1=O)C2=O (stereo partly shown) [17AAG, 17-Allylamino-17-demethoxygeldanamycin]
- effect on RSV L protein [1]: causes degradation of L protein
- viral load in the CNS (poliovirus [2]): dramatically reduced the viral load
- mice with virus decreased to undetectable levels (poliovirus [2]; 2.5 mg/kg): 4 of 8
- mice with virus decreased to undetectable levels (poliovirus [2]; 25 mg/kg): 5 of 8
- apparent toxicity to the treated animal [3]: did not result in any apparent toxicity

Molecule: COC1=C2C[C@@H](C)C[C@H](OC)[C@H](O)[C@@H](C)/C=C(\C)[C@H](OC(N)=O)[C@@H](OC)/C=C\C=C(/C)C(=O)NC(=CC1=O)C2=O [GA, Geldanamycin]
- inhibition at 0.1 µM (poliovirus [4]): > 99%
- reduction in virus production (poliovirus [5]): ~50%
- inhibition at 2 µM (poliovirus [6]): 95%
- time in which P1 was readily degraded after treatment (capsid precursor P1): ≤ 3 h
- IC50 (poliovirus [7]): 110 nM

Molecule: trichostatin A [TSA]
- maximal reduction in virus production (poliovirus [5]): 30%

Molecule: CC(=O)N[C@@H](CSC(=O)[C@]1([C@@H](O)C(C)C)NC(=O)[C@H](C)[C@@H]1O)C(=O)O [lactacystin, Lactacystin]
- protection of P1 from GA-induced degradation (capsid precursor P1): protected P1 from degradation

Molecule: CCCC[C@@H](C=O)NC(=O)[C@H](CC(C)C)NC(=O)[C@H](CC(C)C)NC(C)=O [ALLN, N-Acetyl-L-leucyl-L-leucyl-L-norleucinal] (Ac-Leu-Leu-[Nle]-aldehyde)
- protection of P1 from GA-induced degradation (capsid precursor P1): protected P1 from degradation
